From US20240245677A1, “SELECTED COMPOUNDS FOR TARGETED DEGRADATION OF BRD9” (C4 THERAPEUTICS, INC., priority 2021, published 2024)

Columns and labels:
[1] = Hygroscopicity by DVS at 25° C.; type: physicochemical; settings: DVS 25° C.
Protocol: Hygroscopicity of Form A and Form N was investigated by DVS at 25° C. […] Form A converted to Form K after the DVS test. Form K is a metastable hydrate. It reverted back to Form A after exposure to ambient condition.
Hygroscopicity of the free base Pattern A* and the urea cocrystal Form P were evaluated by DVS at 25° C.

[2] = Compression and ball-milling experiments; type: physicochemical; settings: for behavior under ball milling: ball milling for 5 min; for behavior under compression: 2 to 10 MPa
Protocol: Feasibility of formulation processes was evaluated with compression and ball-milling experiments. […] However, the hydrate Form N is sensitive to pressure.

[3] = Bulk stability study (1 week stress conditions; drying); settings: for physical and chemical stability: 25° C./92% RH open vial, 40° C./75% RH open vial or 60° C. closed vial, 1 week
[4] = Variable humidity XRPD (VH-XRPD) experiments; type: physicochemical; settings: listed as Pattern N
Protocol: Based on DVS results, variable humidity XRPD was conducted for Pattern A at different humidity conditions, including 40%, 70%, 90%, 70%, 40%, 20%, 0%, 40% RH conditions.
Based on DVS results, variable humidity XRPD was conducted for Pattern N, at different humidity conditions, including 40%, 70%, 90%, 70%, 40%, 20%, 0%, 40% RH conditions.

[5] = Approximate solubility in solvents at 25° C. and 50° C. (visual observation); type: physicochemical; settings: for Solubility (mg/mL), 25° C.: target conc. = 250 mg/mL; for Solubility (mg/mL), 50° C.: target conc. = 500 mg/mL
Protocol: Max. volume of each solvent added was 1 mL. Approximate solubility was determined by visual observation.
Max volume of each solvent added was 1 mL. Approximate solubility was determined by visual observation.

[6] = Equilibration under a temperature cycle (XRPD); type: physicochemical
Protocol: (§1) Obtained suspension was filtered through a 0.45 μm nylon membrane filter by centrifugation at 14,000 rpm for 5 min. Solid parts (wet cakes) were investigated by XRPD immediately. For samples with different XRPD results, additional analysis including HPLC, DSC, TGA, ^1H-NMR and KF was performed. Some samples with Form K were exposure to ambient condition and investigated by XRPD again.

[7] = Equilibration with solvents at 25° C. for 2 weeks (XRPD); type: physicochemical
Protocol: Obtained suspension was filtered through a 0.45 μm nylon membrane filter by centrifugation at 14,000 rpm for 5 min. Solid parts (wet cakes) were investigated by XRPD immediately. Some samples with Form K were exposure to ambient condition and investigated by XRPD again.

[8] = Equilibration with solvents at 50° C. for 1 week (XRPD); type: physicochemical
Protocol: as §1, with “The obtained” for “Obtained”

[9] = Competitive equilibration experiment at 25° C.; type: physicochemical; settings: 7 days
Protocol: Competitive equilibration experiments were conducted at 25° C. to investigate the thermodynamically stable anhydrate. 5 mg of Pattern G, and 5 mg of Pattern H, were added to about 200 μL of saturated solution in selected solvents. Obtained suspension was stirred at 25° C. for 7 days. Obtained suspensions were centrifuged and obtained solids were analyzed by XRPD immediately.

## COc1cc(-c2cn(C)c(=O)c(C)c2C)cc(OC)c1CN1CC[C@H](N2CCN(c3ccc(N[C@H]4CCC(=O)NC4=O)cc3F)CC2)C(F)(F)C1 [Form A]
[1]; from 40% RH to 70% RH
  water uptake: about 2.0%
[2]
  behavior under ball milling: no obvious crystallinity decrease
  behavior under compression: no form change and no obvious crystallinity decrease even under 10 MPa
[3]
  physical and chemical stability: physically and chemically stable

## COc1cc(-c2cn(C)c(=O)c(C)c2C)cc(OC)c1CN1CC[C@H](N2CCN(c3ccc(N[C@H]4CCC(=O)NC4=O)cc3F)CC2)C(F)(F)C1 [Form N]
[1]; from 40% RH to 80% RH
  water uptake: about 1.0%
[2]
  behavior under ball milling: no obvious crystallinity decrease
  behavior under compression: crystallinity decrease even compressed under 2 MPa
[3]
  physical and chemical stability: physically and chemically stable
[3]; 50° C. under vacuum for 2 days
  form change and degradation after drying: No form change and no degradation
[4]; 0% RH
  XRPD: Pattern N
[4]; 20% RH
  XRPD: Pattern N
[4]; 40% RH (after 90% RH, falling)
  XRPD: Pattern N
[4]; 40% RH (first step)
  XRPD: Pattern N
[4]; 40% RH (last step, after 0% RH)
  XRPD: Pattern N
[4]; 70% RH (after 90% RH)
  XRPD: Pattern N
[4]; 70% RH (humidity rising)
  XRPD: Pattern N
[4]; 90% RH
  XRPD: Pattern N

## COc1cc(-c2cn(C)c(=O)c(C)c2C)cc(OC)c1CN1CC[C@H](N2CCN(c3ccc(N[C@H]4CCC(=O)NC4=O)cc3F)CC2)C(F)(F)C1 [Pattern E]
[5]; 1,4-Dioxane
  Solubility (mg/mL), 25° C.: >250 mg/mL
  Solubility (mg/mL), 50° C.: >500 mg/mL
[5]; 2-MeTHF
  Solubility (mg/mL), 25° C.: 83 to 125 mg/mL
  Solubility (mg/mL), 50° C.: 250 to 500 mg/mL
[5]; Acetone
  Solubility (mg/mL), 25° C.: 20 to 25 mg/mL
  Solubility (mg/mL), 50° C.: 100 to 200 mg/mL
[5]; Acetonitrile
  Solubility (mg/mL), 25° C.: 5 to 6 mg/mL
  Solubility (mg/mL), 50° C.: <10 mg/mL
[5]; DCM
  Solubility (mg/mL), 25° C.: 125 to 250 mg/mL
[5]; DMSO
  Solubility (mg/mL), 25° C.: >250 mg/mL
  Solubility (mg/mL), 50° C.: >500 mg/mL
[5]; Ethanol
  Solubility (mg/mL), 25° C.: 6 to 8 mg/mL
  Solubility (mg/mL), 50° C.: 16 to 25 mg/mL
[5]; Ethyl acetate
  Solubility (mg/mL), 25° C.: 6 to 8 mg/mL
  Solubility (mg/mL), 50° C.: 14 to 20 mg/mL
[5]; Heptane
  Solubility (mg/mL), 25° C.: <5 mg/mL
  Solubility (mg/mL), 50° C.: <10 mg/mL
[5]; MTBE (Methyl tert-butyl ether)
  Solubility (mg/mL), 25° C.: <5 mg/mL
[5]; MTBE
  Solubility (mg/mL), 50° C.: <10 mg/mL
[5]; Methanol
  Solubility (mg/mL), 25° C.: 8 to 13 mg/mL
  Solubility (mg/mL), 50° C.: 18 to 22 mg/mL
[5]; Methanol/water (v:v = 95:5)
  Solubility (mg/mL), 25° C.: 8 to 13 mg/mL
  Solubility (mg/mL), 50° C.: 14 to 20 mg/mL
[5]; THF (Tetrahydrofuran)
  Solubility (mg/mL), 25° C.: >250 mg/mL
[5]; THF
  Solubility (mg/mL), 50° C.: >500 mg/mL
[5]; Toluene
  Solubility (mg/mL), 25° C.: <5 mg/mL
  Solubility (mg/mL), 50° C.: <10 mg/mL
[5]; Water
  Solubility (mg/mL), 25° C.: <5 mg/mL
  Solubility (mg/mL), 50° C.: <10 mg/mL
[6]; equilibration under a temperature cycle, 1,4-Dioxane/heptane (v:v = 1:1)
  XRPD: +Pattern B
[6]; equilibration under a temperature cycle, 2-MeTHF
  XRPD: +Pattern F
[6]; equilibration under a temperature cycle, Acetone
  XRPD: +Pattern B
[6]; equilibration under a temperature cycle, Acetone/water (v:v = 36:64)
  XRPD: +Pattern K
[6]; equilibration under a temperature cycle, Acetone/water (v:v = 76:24)
  XRPD: +Pattern A
[6]; equilibration under a temperature cycle, Acetone/water (v:v = 92:8)
  XRPD: +Pattern B
[6]; equilibration under a temperature cycle, Acetonitrile
  XRPD: +Pattern B
[6]; equilibration under a temperature cycle, DCM/heptane (v:v = 1:1)
  XRPD: +Pattern F
[6]; equilibration under a temperature cycle, DMSO/water (v:v = 64:36)
  XRPD: +Pattern F
[6]; equilibration under a temperature cycle, Ethanol
  XRPD: +Pattern F
[6]; equilibration under a temperature cycle, Ethyl acetate
  XRPD: +Pattern F
[6]; equilibration under a temperature cycle, Methanol
  XRPD: +Pattern B
[6]; equilibration under a temperature cycle, THF/heptane (v:v = 1:1)
  XRPD: +Pattern F
[6]; equilibration under a temperature cycle, Toluene
  XRPD: +Pattern A
[7]; 1,4-dioxane/heptane (v:v = 1:1)
  XRPD after equilibration at 25° C. for 2 weeks: +Pattern B
[7]; 2-MeTHF
  XRPD after equilibration at 25° C. for 2 weeks: +Pattern B
[7]; Acetone
  XRPD after equilibration at 25° C. for 2 weeks: +Pattern B
[7]; Acetone/water (v:v = 36:64) a.w. = 0.90
  XRPD after equilibration at 25° C. for 2 weeks: +Pattern K
[7]; Acetone/water (v:v = 76:24) a.w. = 0.70
  XRPD after equilibration at 25° C. for 2 weeks: +Pattern B
[7]; Acetone/water (v:v = 92:8) a.w. = 0.50
  XRPD after equilibration at 25° C. for 2 weeks: +Pattern B
[7]; Acetonitrile
  XRPD after equilibration at 25° C. for 2 weeks: +Pattern B
[7]; DCM/heptane (v:v = 1:1)
  XRPD after equilibration at 25° C. for 2 weeks: +Pattern F
[7]; DMSO/water (v:v = 23:77) a.w. = 0.91
  XRPD after equilibration at 25° C. for 2 weeks: +Pattern K
[7]; Ethanol
  XRPD after equilibration at 25° C. for 2 weeks: +Pattern A
[7]; Ethyl acetate
  XRPD after equilibration at 25° C. for 2 weeks: +Pattern F
[7]; Methanol
  XRPD after equilibration at 25° C. for 2 weeks: +Pattern K
[7]; THF/heptane (v:v = 1:1)
  XRPD after equilibration at 25° C. for 2 weeks: +Pattern B
[7]; Toluene
  XRPD after equilibration at 25° C. for 2 weeks: +Pattern K
[8]; equilibration at 50° C. for 1 week, 1,4-Dioxane/heptane (v:v = 1:1)
  XRPD: +Pattern B
[8]; equilibration at 50° C. for 1 week, 2-MeTHF
  XRPD: +Pattern B
[8]; equilibration at 50° C. for 1 week, Acetone
  XRPD: +Pattern B
[8]; equilibration at 50° C. for 1 week, Acetone/water (v:v = 36:64) a.w. = 0.90
  XRPD: +Pattern K
[8]; equilibration at 50° C. for 1 week, Acetone/water (v:v = 76:24) a.w. = 0.71
  XRPD: +Pattern B
[8]; equilibration at 50° C. for 1 week, Acetone/water (v:v = 92:8) a.w. = 0.50
  XRPD: +Pattern B
[8]; equilibration at 50° C. for 1 week, Acetonitrile
  XRPD: +Pattern F
[8]; equilibration at 50° C. for 1 week, DMSO/water (v:v = 23:77) a.w. = 0.91
  XRPD: +Pattern K
[8]; equilibration at 50° C. for 1 week, DMSO/water (v:v = 64:36) a.w. = 0.53
  XRPD: +Pattern B
[8]; equilibration at 50° C. for 1 week, Ethanol
  XRPD: +Pattern F
[8]; equilibration at 50° C. for 1 week, Ethyl acetate
  XRPD: +Pattern F
[8]; equilibration at 50° C. for 1 week, THF/heptane (v:v = 1:1)
  XRPD: +Pattern B
[8]; equilibration at 50° C. for 1 week, Toluene
  XRPD: +Pattern G

## COc1cc(-c2cn(C)c(=O)c(C)c2C)cc(OC)c1CN1CC[C@H](N2CCN(c3ccc(N[C@H]4CCC(=O)NC4=O)cc3F)CC2)C(F)(F)C1 [Pattern G and Pattern H]
[9]; Acetone
  XRPD after competitive equilibration at 25° C.: Pattern B
[9]; Ethanol
  XRPD after competitive equilibration at 25° C.: Low crystallinity, difficult to differentiate
[9]; Ethyl acetate
  XRPD after competitive equilibration at 25° C.: Pattern F
[9]; Toluene
  XRPD after competitive equilibration at 25° C.: Pattern G
